Results reported in paper PMC11984905, “Chiral Switch of Gadopiclenol: New Standards in MRI Probes” (Advanced Science, 2025).
Read-outs that look alike come from different tables or passages of the source. Marks after values point to notes of the source that are not given here.

Key:
[1] = cited from earlier work; for ^298K r 1 [1.5 T] / r 1 ^310K [1.5 T]: water; for τ R: Table 2
[2] = cited from earlier work
[3] = cited from earlier work; remark: listed apart in the source
[4] = cited from earlier work; remark: listed apart in the source
[5] = 25 °C, cited from earlier work
[6] = cited from earlier work; remark: listed apart in the source
[7] = cited from earlier work; for pGd: [Gd^3+]tot = 1 µM, [L]tot = 10 µM; for pGd / logK^c GdL: pH 7.4, calculated from literature constants; for *logKGd(H2L): diprotonated out-of-cage intermediate
[8] = Biodistribution and in vivo dynamic T1-weighted MRI; parameters: species or system A/J healthy mice; conditions: 0.1 mmol Gd/kg i.v.
Experimental: Dynamic T 1‐weighted MRI on twelve A/J healthy mice was used to compare the biodistribution of ([Gd(ent‐L2)] and [Gd(BT‐DO3A)] (Gadovist), n = 6 animals each), administered at 0.1 mmol Gd/kg. The MRI monitored the distribution within abdominal tissues for up to 1 h post‐administration MRI images and the pharmacokinetic curves are shown in Figure 6 .
All the procedures and the experiments were conducted according to the national and international laws on experimental animal research (L.D. 26/2014; Directive 2010/63/EU) and under a specific Italian Ministerial Authorization (project research number 46/2015‐PR). Twelve A/J healthy mice (females, 6–7 weeks old, supplied by Envigo RMS S.r.l.) were housed in a controlled environment (22°C, 55% humidity, 15–20 air changes/hour, 12‐h light/dark cycle) with ad libitum access to VRF1 (P) certified pellets and filtered water. To minimize discomfort, the animals were socially housed with enrichment items. Veterinary care was available throughout the study to alleviate any potential pain or distress following procedures. […] The animals were randomly assigned to two experimental groups (n = 6 each, with sample size confirmed via GPower) and underwent to Magnetic Resonance Imaging (MRI) experiments performed using a BioSpec 47/30 preclinical scanner (Bruker Biospin, Ettlingen, Germany) operating at […] (i.e., at a proton Larmor frequency of 125 MHz) and equipped with two‐channel 35 mm RF volume coil. During MRI experiments, all the animals were anaesthetized with isoflurane gas (≈1%) in O2. Anaesthesia was maintained by adjustment of gas level as a function of breath rate. Before injection of each test article, T 1‐weighted spin echo sequences were acquired on the animal in order to check the position of the animal. A series of T 1‐weighted 3D gradient echoscans (repetition time = 50 ms, flip angle = 50°, echo time = 2.8 ms, number of averages = 2, matrix size (3D) = 192 × 192 × 8, field of view = 2.5 × 2.5 × 1.2 cm, acquisition time = 154 s) were then acquired before and after the intravenous administration of a 50 mM saline solution (0.9%) of [Gd(ent‐L2)] (n = 6 mice) and [Gd(BT‐DO3A)] (Gadovist, Bayer Schering, Germany) (n = 6 mice) at an injection rate of ≈2 mL/min through a catheter placed in the tail vein of the animal. Both [Gd(ent‐L2)] and [Gd(BT‐DO3A)] were administered at a dose of 0.1 mmol Gd/kg corresponding to an administration volume of 2 mL kg^−1. The kinetics of the Gd(III)‐complexes was followed up to 60 min post‐injection. After imaging was performed, the mouse was removed from the scanner and returned to the Animal Facility room. At the end of the study all animals were sacrificed by overdose of anaesthesia and cervical dislocation. Unblinded image analysis was performed by positioning the region of interest (ROIs) over liver, kidney, muscle, and blood vessel. ROIs positioning and signal quantification was performed by using a home‐developed plugin, running on Image J.^[ [51] ^]
Signal enhancement (Enh) was calculated using the formula: Enh = 100×(SignalpostCA ‐SignalpreCA)/SignalpreCA, where SignalpreCA and SignalpostCA denote the MR signal before and after administration of contrast agents, respectively. Data were presented as mean ± standard deviation (SD). The sample size (n = 6 per group) was determined a priori using GPower software to ensure adequate statistical power. The Levene's test was employed to assess the homogeneity of variances among groups. For comparisons where homogeneity of variance was confirmed, a one‐way ANalysis Of VAriance (ANOVA) was applied to test the null hypothesis that treatment groups originate from the same distribution. Post‐hoc pairwise multiple comparisons were performed using Tukey's method when significant differences were detected. Statistical analyses and data visualization were conducted using Mathematica (Wolfram, USA), while summary statistics (mean, SD, and standard error) were calculated using Microsoft Excel (USA). […]

In the case of `O=C([O-])CN1CCN(CC(=O)[O-])CCN(CC(=O)[O-])CCN(CC(=O)[O-])CC1.[Gd+3]` [[Gd(DOTA)]^−], the “^298K r 1 [1.5 T]” value [1] is listed as 4.2 mM⁻¹ s⁻¹, the “r 1 ^310K [1.5 T]” value [1] is listed as 3.3 mM⁻¹ s⁻¹ and the τ R [1] is listed as 90 ps. For the same molecule, the q [1] was 1, the “τ M1” value [1] was 208 ns and the k1 ([2]; 0.15 M NaCl, 25 °C) was 1.8e-06 M⁻¹ s⁻¹. The “K^HGd(HL)” value ([2]; 3.0 M NaClO4, 25 °C) was 14^d) M^-1, the k1 ([2]; 25 °C) was 8.4e-06 M⁻¹ s⁻¹ and the “k d at pH = 7.4” value ([2]; pH 7.4, 0.15 M NaCl, 25 °C) was 7.3×10^-14 s^−1. For the same molecule, the “k d at pH = 7.4” value ([2]; pH 7.4, 25 °C) was 3.3×10^-14 s^−1 and the k0 ([2]; spontaneous dissociation, 0.15 M NaCl, 25 °C) was 6.7×10^-11 b) s^-1.

In the case of `O=C(O)CN1CCN(CC(=O)O)Cc2cccc(n2)CN(CC(=O)O)CC1` [PCTA, 3,6,9,15‐tetraazabicyclo[9.3.1]pentadeca‐1(15),11,13‐triene‐3,6,9 triacetic acid], the “logK ZnL” value ([3]; 1.0 M KCl) is listed as 20.48, the logKZnHL ([3]; 1.0 M KCl) is listed as 3.10 and the “logK CaL” value ([4]; 1.0 M KCl) is listed as 12.72. For the same molecule, the logKCaHL ([4]; 1.0 M KCl) was 3.79, the “logK1^H” value ([5]; 0.15 M NaCl) was 9.97 and the “logK2^H” value ([5]; 0.15 M NaCl) was 6.73. The “logK3^H” value ([5]; 0.15 M NaCl) was 3.22, the “logK4^H” value ([5]; 0.15 M NaCl) was 1.40 and the “ΣlogKi^H” value ([5]; 0.15 M NaCl) was 21.32. For the same molecule, the “logK1^H” value ([5]; 1.0 M KCl) was 11.36, the “logK2^H” value ([5]; 1.0 M KCl) was 7.35 and the “logK3^H” value ([5]; 1.0 M KCl) was 3.83. The “logK4^H” value ([5]; 1.0 M KCl) was 2.12, the “ΣlogKi^H” value ([5]; 1.0 M KCl) was 25.95 and the “logK CuL” value ([6]; 1.0 M KCl) was 18.79. The logKCuHL ([6]; 1.0 M KCl) was 3.58, the “logK GdL” value ([7]; 1.0 M KCl) was 20.39 and the logKGdLH-1 ([7]; 1.0 M KCl) was 11.10. For the same molecule, the pGd ([7]; 1.0 M KCl) was 17.11, the “*logKGd(H2L)” value ([7]; 1.0 M KCl) was 3.12 and the “logK^c GdL” value ([7]; 1.0 M KCl) was 16.15.

In the case of `CC(O)CN1CCN(CC(=O)O)CCN(CC(=O)O)CCN(CC(=O)O)CC1` (centres unmarked) [HP‐DO3A], the “logK ZnL” value ([3]; 0.1 M Me4NCl, 25 °C) is listed as 19.37, the logKZnHL ([3]; 0.1 M Me4NCl) is listed as 3.7 and the “logK CaL” value ([4]; 0.1 M Me4NCl, 25 °C) is listed as 14.83. The “logK1^H” value ([5]; 0.1 M Me4NCl) was 11.96, the “logK2^H” value ([5]; 0.1 M Me4NCl) was 9.43 and the “logK3^H” value ([5]; 0.1 M Me4NCl) was 4.30. The “logK4^H” value ([5]; 0.1 M Me4NCl) was 3.26, the “ΣlogKi^H” value ([5]; 0.1 M Me4NCl) was 28.95 and the “logK CuL” value ([6]; 0.1 M Me4NCl, 25 °C) was 22.84. The logKCuH2L ([6]; 0.1 M Me4NCl) was 2.3, the logKCuHL ([6]; 0.1 M Me4NCl) was 3.72 and the “logK GdL” value ([7]; 0.1 M Me4NCl, 25 °C) was 23.8. The logKGdHL ([7]; 0.1 M Me4NCl) was 1.10, the logKGdLH-1 ([7]; 0.15 M NaCl, 25 °C) was 11.36^f) and the pGd ([7]; 0.1 M Me4NCl) was 18.16. The “*logKGd(H2L)” value ([7]; 0.15 M NaCl, 25 °C) was 5.10^f), the “logK^c GdL” value ([7]; 0.1 M Me4NCl) was 17.21 and the “k d at pH = 7.4” value ([2]; pH 7.4, 0.1 M NaCl, 25 °C) was 1.0 × 10^−11 s^−1. The “k d at pH = 7.4” value ([2]; pH 7.4, 0.15 M NaCl, 25 °C) was 1.2 × 10^−11 s^−1.

For `O=C([O-])CN1CCN(CC(=O)[O-])Cc2cccc(n2)CN(CC(=O)[O-])CC1.[Gd+3]` [[Gd(PCTA)]], the “^298K r 1 [1.5 T]” value [1] is listed as 6.4 mM⁻¹ s⁻¹, the “r 1 ^310K [1.5 T]” value [1] is listed as 4.9 mM⁻¹ s⁻¹ and the τ R [1] is listed as 63 ps. The q [1] was 2, the “τ M1” value [1] was 151 ns and the “τ M2” value [1] was 36 ns.

With `O=C([O-])CN1CCN(CC(=O)[O-])CCN(C(CO)C(O)CO)CCN(CC(=O)[O-])CC1.[Gd+3]` (centres unmarked) [[Gd(BT‐DO3A)], reference compound] the “average maximum signal enhancement in the liver” value ([8]; 3 T, n = 6) was “≈ 110%”, the “wash-in and wash-out kinetics” value ([8]; up to 1 h post-administration) was “rapid wash‐in and wash‐out” and the “decrease in signal enhancement in the blood compartment” value ([8]; within 30 min, 3 T) was no less than 50%. The k1 ([2]; 25 °C) was 3.4e-05 M⁻¹ s⁻¹ and the “k d at pH = 7.4” value ([2]; pH 7.4, 0.1 M NaCl, 25 °C) was 1.35×10^-12 s^−1.
